In US9315546B2, “Growth hormone secretatogue receptor antagonists and uses thereof” (The Administrators of the Tulane Educational Fund, priority 2010, dated 2016):
Where “and” joins values, the source holds several entries; their conditions need not be identical. Equal values may be shown once. Where no end group is shown, it is not given here. [ ]: non-standard residue; d: D form. d2Nal = N[C@H](Cc1ccc2ccccc2c1)C(=O)O; Orn = NCCC[C@H](N)C(=O)O; Aib = CC(C)(N)C(=O)O; GABA = NCCCC(=O)O; βAla = NCCC(=O)O

Biological target: Ghrelin/GHRP/GHS Receptor (Rattus norvegicus, UniProt O08725)
Assay: In vivo GH release in rat after i.v. peptide (serum GH by RIA)
Description: For the in vivo assay of GH Release in rat, immature female Sprague Dawley rats were obtained from Charles River from Wilmington, Mass. After arrival they were housed at 25° C. with a 14:10 h light:dark cycle. Water and Purina rat chow were available at libitum. Pups were weaned at 21 days of age.
Immature twenty six day old female Sprague Dawley rats, 3-6 rats per treatment dose, were pretreated with pentobarbital 20 minutes before iv injection of vehicle/peptide or peptide plus stimulator. Injection was made as a 0.1 ml solution. For the non-pentobarbital treated rat assay, peptides were administered iv into the tail vein of conscious rats. All animals were sacrificed by guillotine after iv peptide or vehicle. Trunk blood was collected at +10-15 minutes […], allowed to clot, centrifuged and serum stored until assayed for GH levels by RIA. The GH RIA reagents were distributed by the NIH. Control data was collected from rats treated with only the corresponding vehicle in the absence of peptide or stimulator. Control stimulated data was collected from rats treated with stimulator alone in the absence of any peptide.

[1] = Pentobarbital Rats, peptide alone 30 μg i.v.
[2] = Pentobarbital Rats, peptide alone 100 μg i.v.
[3] = peptide antagonist 30 μg i.v. + stimulator 1 μg
[4] = peptide antagonist 100 μg i.v. + stimulator 1 μg
[5] = peptide antagonist 3 μg i.v. + stimulator 1 μg
[6] = peptide antagonist 10 μg i.v. + stimulator 1 μg
[7] = Table 3, peptide alone 30 μg i.v.
[8] = Table 3, peptide alone 100 μg i.v.
[9] = Table 5, peptide alone 1 μg i.v.
[10] = Table 5, peptide alone 10 μg i.v.
[11] = Table 5, peptide alone 30 μg i.v.
[12] = Table 3, peptide alone 1 μg i.v.
[13] = Table 3, peptide alone 3 μg i.v.
[14] = Table 3, peptide alone 10 μg i.v.
[15] = Non-Pentobarbital Rats, peptide 30 μg i.v. + stimulator 10 μg
[16] = Non-Pentobarbital Rats, peptide alone 30 μg i.v.
[17] = peptide antagonist 30 μg i.v. + stimulator 0.3 μg
[18] = Table 5, peptide alone 3 μg i.v.

Sequence of Ghrelin/GHRP/GHS Receptor (O08725 whole entry): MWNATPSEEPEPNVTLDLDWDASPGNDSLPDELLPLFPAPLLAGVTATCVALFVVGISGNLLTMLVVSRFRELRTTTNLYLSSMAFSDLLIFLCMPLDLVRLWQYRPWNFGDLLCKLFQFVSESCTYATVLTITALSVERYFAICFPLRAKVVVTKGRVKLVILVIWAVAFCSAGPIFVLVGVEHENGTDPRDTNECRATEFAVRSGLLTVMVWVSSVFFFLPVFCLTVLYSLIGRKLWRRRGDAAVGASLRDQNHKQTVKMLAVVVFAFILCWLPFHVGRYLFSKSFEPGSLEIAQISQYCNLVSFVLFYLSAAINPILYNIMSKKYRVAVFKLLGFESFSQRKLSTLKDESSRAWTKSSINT

Substance: [dA][d2Nal][dK][dW]FK-NH2 [3-DAla-DβNal-DLys-DTrp-Phe-Lys-NH2]
- Stimulated GH release (P + S) (Pentobarbital Rats, peptide 30 μg i.v. + stimulator 1 μg): 2864 ± 828 ng/mL
- Stimulated GH release (P + S) (Pentobarbital Rats, peptide 100 μg i.v. + stimulator 1 μg): 1198 ± 114 ng/mL
- Unstimulated GH release (−S) [1]: 323 ± 50 ng/mL
- Unstimulated GH release (−S) [2]: 812 ± 6 ng/mL
- Stimulated GH release [3]: 2884 ± 828 ng/mL
- Stimulated GH release [4]: 1198 ± 114 ng/mL

Substance: Alaψ[CH2NH]-DβNal-Ala-Trp-DPhe-Lys-NH2 [6-Alaψ[CH2NH]-DβNal-Ala-Trp-DPhe-Lys-NH2]
- Stimulated GH release [5]: 2771 ± 157 ng/mL
- Stimulated GH release [6]: 2341 ± 416 ng/mL
- Stimulated GH release [3]: 1948 ± 450 ng/mL
- Stimulated GH release [4]: 1639 ± 221 ng/mL

Substance: [βAla]W[dA][dW]F-NH2 [10-βAla-Trp-DAla-DTrp-Phe-NH2]
- Unstimulated Basal GH release [7]: 341 ± 46 ng/mL
- Unstimulated Basal GH release [8]: 636 ± 171 ng/mL

Substance: αγAbu-DTrp-DTrp-Orn-NH2 [3-αγAbu-DTrp-DTrp-Orn-NH2]
- Unstimulated Basal GH release [9]: 118 ± 16 ng/mL
- Unstimulated Basal GH release [10]: 126 ± 27 ng/mL
- Unstimulated Basal GH release [11]: 79 ± 31 ng/mL

Substance: DcyclohexylAla-Ala-Phe-DTrp-Lys-NH2 [3-DcyclohexylAla-Ala-Phe-DTrp-Lys-NH2]
- Unstimulated Basal GH release [12]: 199 ± 63 ng/mL
- Unstimulated Basal GH release [13]: 266 ± 68 ng/mL
- Unstimulated Basal GH release [14]: 199 ± 23 ng/mL
- Unstimulated Basal GH release [7]: 346 ± 82 ng/mL
- Unstimulated Basal GH release [8]: 350 ± 61 ng/mL

Substance: inip-Trp-Trp-Phe-NH2 [10-inip-Trp-Trp-Phe-NH2]
- Unstimulated Basal GH release [10]: 69 ± 3 ng/mL
- Unstimulated Basal GH release [11]: 81 ± 10 ng/mL

Substance: Glyψ[CH2NH]-DβNal-DLys-Trp-DPhe-Lys-NH2
- Stimulated GH release (peptide antagonist 1 μg i.v. + stimulator 1 μg): 2305 ± 320 ng/mL
- Stimulated GH release [5]: 1990 ± 196 ng/mL
- Stimulated GH release [6]: 1550 ± 284 ng/mL
- Stimulated GH release [3]: 946 ± 133 ng/mL
- Stimulated GH release [4]: 462 ± 122 ng/mL

Substance: [dA][d2Nal][dA][dW]FK-NH2 [9-DAla-DβNal-DAla-DTrp-Phe-Lys-NH2]
- Unstimulated Basal GH release [12]: 184 ± 55 ng/mL
- Unstimulated Basal GH release [13]: 467 ± 201 ng/mL
- Unstimulated Basal GH release [14]: 244 ± 107 ng/mL

Substance: αAbu-DTrp-DTrp-Orn-NH2 [4-αAbu-DTrp-DTrp-Orn-NH2]
- Unstimulated Basal GH release [9]: 85 ± 25 ng/mL
- Unstimulated Basal GH release [10]: 88 ± 18 ng/mL
- Unstimulated Basal GH release [11]: 50 ± 6 ng/mL

Substance: [d2Nal]AW[dF]L-NH2 [7-DβNal-Ala-Trp-DPhe-Leu-NH2]
- Unstimulated Basal GH release [13]: 253 ± 79 ng/mL
- Unstimulated Basal GH release [14]: 277 ± 43 ng/mL
- Unstimulated Basal GH release [7]: 347 ± 66 ng/mL
- Unstimulated Basal GH release [8]: 645 ± 117 ng/mL

Substance: H[dW]FW[dF]K-NH2 [8-His-DTrp-Phe-Trp-DPhe-Lys-NH2]
- Unstimulated Basal GH release [12]: 67 ± 14 ng/mL
- Unstimulated Basal GH release [13]: 141 ± 53 ng/mL
- Unstimulated Basal GH release [14]: 197 ± 70 ng/mL
- Unstimulated Basal GH release [7]: 509 ± 48 ng/mL

Substance: Y[dA]F[Aib]-NH2 [1-Tyr-DAla-Phe-Aib-NH2]
- Stimulated GH release (P + S) [15]: 23 ± 5 ng/mL
- Unstimulated GH release (−S) [16]: 18 ± 1 ng/mL

Substance: DAla-DcyclohexylAla-Ala-Phe-DPhe-Nle-NH2
- Unstimulated Basal GH release [12]: 435 ± 152 ng/mL
- Unstimulated Basal GH release [13]: 195 ± 34 ng/mL
- Unstimulated Basal GH release [14]: 250 ± 41 ng/mL
- Unstimulated Basal GH release [7]: 393 ± 51 ng/mL
- Unstimulated Basal GH release [8]: 697 ± 75 ng/mL

Substance: αγAbu-DTrp-DTrp-Ser-NH2 [1-αγAbu-DTrp-DTrp-Ser-NH2]
- Unstimulated Basal GH release [9]: 80 ± 35 ng/mL
- Unstimulated Basal GH release [10]: 62 ± 15 ng/mL
- Unstimulated Basal GH release [11]: 67 ± 8 ng/mL

Substance: [dA][d2Nal]AT[dT]K-NH2 [4-DAla-DβNal-Ala-Thr-DThr-Lys-NH2]
- Unstimulated Basal GH release [13]: 255 ± 38 ng/mL
- Unstimulated Basal GH release [7]: 288 ± 31 ng/mL
- Unstimulated Basal GH release [8]: 386 ± 57 ng/mL

Substance: Glyψ[CH2NH]-DβNal-Ala-Trp-DPhe-Lys-NH2 [1-Glyψ[CH2NH]-DβNal-Ala-Trp-DPhe-Lys-NH2]
- Stimulated GH release (peptide antagonist 10 μg i.v. + stimulator 0.3 μg): 1112 ± 200 ng/mL
- Stimulated GH release [6]: 2307 ± 176 ng/mL and 1842 ± 454 ng/mL
- Stimulated GH release [17]: 578 ± 82 ng/mL
- Stimulated GH release [3]: 890 ± 236 ng/mL and 1135 ± 140 ng/mL

Substance: [d2Nal]AW[dF]A-NH2 [1-DβNal-Ala-Trp-DPhe-Ala-NH2]
- Unstimulated Basal GH release [12]: 623 ± 60 ng/mL
- Unstimulated Basal GH release [13]: 694 ± 70 ng/mL
- Unstimulated Basal GH release [14]: 654 ± 58 ng/mL
- Unstimulated Basal GH release [7]: 713 ± 71 ng/mL

Substance: AH[dW][dK]W[dF]K-NH2 [5-Ala-His-DTrp-DLys-Trp-DPhe-Lys-NH2]
- Stimulated GH release [17]: 1487 ± 397 ng/mL

Substance: Alaψ[CH2NH]His-DTrp-Ala-Trp-DPhe-Lys-NH2
- Unstimulated Basal GH release [9]: 127 ± 32 ng/mL
- Unstimulated Basal GH release [18]: 147 ± 37 ng/mL

Substance: K[dH][dW]F-NH2 [8-Lys-DHis-DTrp-Phe-NH2]
- Unstimulated Basal GH release [10]: 121 ± 24 ng/mL

Substance: [GABA][dW][dW][Orn]-NH2 [9-γAbu-DTrp-DTrp-Orn-NH2]
- Unstimulated Basal GH release [9]: 82 ± 28 ng/mL
- Unstimulated Basal GH release [10]: 90 ± 5 ng/mL
- Unstimulated Basal GH release [11]: 113 ± 32 ng/mL

Substance: DAla-DβNal-Ala-Ala-DAla-Lys-NH2 [6-DAla-DβNal-Ala-Ala-DAla-Lys-NH2]
- Unstimulated Basal GH release [13]: 235 ± 43 ng/mL
- Unstimulated Basal GH release [14]: 178 ± 33 ng/mL
- Unstimulated Basal GH release [7]: 172 ± 15 ng/mL
- Unstimulated Basal GH release [8]: 185 ± 39 ng/mL

Substance: [dK][d2Nal]AW[dF]K-NH2 [1-DLys-DβNal-Ala-Trp-DPhe-Lys-NH2]
- Stimulated GH release (P + S) (Pentobarbital Rats, peptide 3 μg i.v. (grid head; alignment uncertain) + stimulator 0.3 μg): 5232 ± 346 ng/mL
- Stimulated GH release (P + S) (Pentobarbital Rats, peptide 10 μg i.v. (grid head; alignment uncertain) + stimulator 0.3 μg): 3404 ± 396 ng/mL
- Stimulated GH release (P + S) (Pentobarbital Rats, peptide 30 μg i.v. + stimulator 0.3 μg): 704 ± 169 ng/mL
- Unstimulated GH release (−S) (Pentobarbital Rats, peptide alone 3 μg i.v. (grid head; alignment uncertain)): 616 ± 169 ng/mL
- Unstimulated GH release (−S) (Pentobarbital Rats, peptide alone 10 μg i.v. (grid head; alignment uncertain)): 847 ± 17 ng/mL
- Unstimulated GH release (−S) [1]: 629 ± 146 ng/mL
- Unstimulated GH release (−S) [2]: 228 ± 45 ng/mL

Substance: DcyclohexylAla-Ala-Trp-DPhe-NH2 [5-DcyclohexylAla-Ala-Trp-DPhe-NH2]
- Unstimulated Basal GH release [13]: 181 ± 28 ng/mL
- Unstimulated Basal GH release [14]: 237 ± 18 ng/mL
- Unstimulated Basal GH release [7]: 354 ± 81 ng/mL
- Unstimulated Basal GH release [8]: 771 ± 76 ng/mL

Substance: HW[dA][dW]FK-NH2 [11-His-Trp-DAla-DTrp-Phe-LysNH2]
- Unstimulated Basal GH release [12]: 204 ± 44 ng/mL
- Unstimulated Basal GH release [13]: 127 ± 44 ng/mL
- Unstimulated Basal GH release [14]: 83 ± 5 ng/mL

Substance: Tyr-DAla-Sar-NMePhe-NH2 [2-Tyr-DAla-Sar-NMePhe-NH2]
- Stimulated GH release (P + S) [15]: 24 ± 6 ng/mL
- Unstimulated GH release (−S) [16]: 18 ± 4 ng/mL

Substance: [dA]A[dA][dW]FK-NH2 [6-DAla-Ala-DAla-DTrp-Phe-Lys-NH2]
- Unstimulated Basal GH release [10]: 228 ± 76 ng/mL
- Unstimulated Basal GH release [11]: 172 ± 14 ng/mL
- Unstimulated Basal GH release (Table 5, peptide alone 100 μg i.v.): 153 ± 45 ng/mL

Substance: αγAbu-DTrp-DTrp-Lys-NH2 [2-αγAbu-DTrp-DTrp-Lys-NH2]
- Unstimulated Basal GH release [9]: 57 ± 7 ng/mL
- Unstimulated Basal GH release [18]: 84 ± 18 ng/mL
- Unstimulated Basal GH release [10]: 62 ± 15 ng/mL

Substance: DThr-DαNal-DTrp-DPro-Arg-NH2 [5-DThr-DαNal-DTrp-DPro-Arg-NH2]
- Unstimulated Basal GH release [9]: 60 ± 5 ng/mL
- Unstimulated Basal GH release [18]: 130 ± 24 ng/mL
- Unstimulated Basal GH release [10]: 134 ± 31 ng/mL
